Laboratory results reported in EP3442964B1, “NOVEL N-[(PYRIMIDINYLAMINO)PROPANYL]-AND N [(PYRAZINYLAMINO)PROPANYL]ARYLCARBOXAMIDES” (Boehringer Ingelheim International GmbH, priority 2016, dated 2017).
Where two headings read alike, the source gives them in different places.

How the values were obtained:
human orexin 2 receptor = molecular target: T1, human orexin 2 receptor (Homo sapiens, UniProt O43614); assay type: cell-based
T1 sequence (O43614 1-444): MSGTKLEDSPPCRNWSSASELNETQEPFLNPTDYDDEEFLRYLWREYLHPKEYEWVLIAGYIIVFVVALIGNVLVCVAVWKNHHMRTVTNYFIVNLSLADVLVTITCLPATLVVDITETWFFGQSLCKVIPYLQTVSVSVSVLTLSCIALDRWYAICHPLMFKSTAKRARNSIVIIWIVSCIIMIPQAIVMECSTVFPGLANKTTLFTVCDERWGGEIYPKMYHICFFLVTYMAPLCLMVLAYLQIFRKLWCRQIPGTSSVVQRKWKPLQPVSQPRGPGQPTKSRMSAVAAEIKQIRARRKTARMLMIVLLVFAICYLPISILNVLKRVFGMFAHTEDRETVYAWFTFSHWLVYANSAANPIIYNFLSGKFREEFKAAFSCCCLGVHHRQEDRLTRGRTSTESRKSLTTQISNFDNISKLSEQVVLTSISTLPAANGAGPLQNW
Source text: Chem. Genomics 2009, 3, 22-32.

[1] = Assay C: metabolic stability in human liver microsomes (human MST); assay type: in vitro ADME; details: pooled human liver microsomes, pH 7.6, 1 µM test compound, 37°C
Source text: Stability in human liver microsomes refers to the susceptibility of compounds to biotransformation in the context of selecting and/or designing drugs with favorable pharmacokinetic properties. The primary site of metabolism for many drugs is the liver. Human liver microsomes contain the cytochrome P450s (CYPs), and thus represent a model system for studying drug metabolization in vitro. Enhanced stability in human liver microsomes is associated with several advantages, including increased bioavailability and longer half-life, which can enable lower and less frequent dosing of patients. Thus, enhanced stability in human liver microsomes is a favorable characteristic for compounds that are to be used for drugs.
The metabolic stability of the compounds according to the invention may be investigated as follows: The metabolic degradation of the test compound is assayed at 37°C with pooled human liver microsomes. The final incubation volume of 100 µL per time point contains TRIS buffer pH 7.6 at room temperature (0.1 M), MgCl2 (5 mM), microsomal protein (1 mg/mL) and the test compound at a final concentration of 1 µM. Following a short pre-incubation period at 37°C , the reactions are initiated by addition of beta-nicotinamide adenine dinucleotide phosphate, reduced form (NADPH, 1 mM), and terminated by transferring an aliquot into solvent after different time points. After centrifugation (10000 g, 5 min), an aliquot of the supernatant is assayed by LC-MS/MS for the amount of parent compound. The half-life (t1/2) is determined by the slope of the semi-logarithmic plot of the concentration-time profile.

human MDR1 P-gp = molecular target: T2, human MDR1 P-gp (Homo sapiens, UniProt P08183); test: Assay D: efflux in MDCK cells transfected with the human MDR1 gene; assay type: in vitro ADME; details: MDCK-MDR1 monolayers, pH 7.4, 37°C
T2 construct: expressed in transfected cells; host or cells: MDCK (MDCK-MDR1)
T2 sequence (P08183 whole entry): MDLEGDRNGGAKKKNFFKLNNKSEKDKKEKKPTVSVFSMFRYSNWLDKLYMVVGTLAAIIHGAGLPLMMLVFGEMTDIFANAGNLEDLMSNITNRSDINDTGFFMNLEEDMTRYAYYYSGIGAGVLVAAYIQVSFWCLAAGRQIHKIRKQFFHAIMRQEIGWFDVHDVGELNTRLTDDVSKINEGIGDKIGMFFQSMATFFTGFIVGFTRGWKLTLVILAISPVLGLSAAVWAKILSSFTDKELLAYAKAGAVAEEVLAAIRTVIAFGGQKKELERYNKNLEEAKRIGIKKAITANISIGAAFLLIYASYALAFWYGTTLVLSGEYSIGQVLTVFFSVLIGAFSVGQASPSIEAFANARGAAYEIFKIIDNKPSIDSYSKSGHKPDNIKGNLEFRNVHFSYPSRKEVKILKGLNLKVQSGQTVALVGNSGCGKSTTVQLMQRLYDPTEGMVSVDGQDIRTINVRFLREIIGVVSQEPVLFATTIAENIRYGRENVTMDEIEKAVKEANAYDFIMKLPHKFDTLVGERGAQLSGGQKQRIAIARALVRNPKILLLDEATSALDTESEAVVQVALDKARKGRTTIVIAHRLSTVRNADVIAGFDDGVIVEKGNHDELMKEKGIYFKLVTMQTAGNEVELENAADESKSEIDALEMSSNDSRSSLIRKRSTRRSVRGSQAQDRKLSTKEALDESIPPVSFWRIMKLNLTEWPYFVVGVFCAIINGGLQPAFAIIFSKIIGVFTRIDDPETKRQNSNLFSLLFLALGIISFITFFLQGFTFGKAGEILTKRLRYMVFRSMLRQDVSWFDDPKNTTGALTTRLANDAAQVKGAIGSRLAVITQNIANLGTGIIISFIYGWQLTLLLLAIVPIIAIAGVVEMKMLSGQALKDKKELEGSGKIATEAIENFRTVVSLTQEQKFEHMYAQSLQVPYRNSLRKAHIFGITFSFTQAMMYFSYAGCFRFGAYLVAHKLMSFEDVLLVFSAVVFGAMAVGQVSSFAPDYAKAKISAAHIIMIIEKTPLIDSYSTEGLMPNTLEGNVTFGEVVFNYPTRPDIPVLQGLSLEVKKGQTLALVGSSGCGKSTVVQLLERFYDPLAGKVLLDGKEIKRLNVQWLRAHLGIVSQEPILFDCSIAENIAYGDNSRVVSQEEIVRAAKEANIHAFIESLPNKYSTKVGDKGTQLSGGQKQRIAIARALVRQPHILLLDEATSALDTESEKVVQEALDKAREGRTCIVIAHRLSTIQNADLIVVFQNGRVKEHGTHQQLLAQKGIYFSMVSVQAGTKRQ
Experimental: The MDCK assay provides information on the potential of a compound to pass the blood brain barrier. Permeability measurements across polarized, confluent MDCK-MDR1 cell monolayers grown on permeable filter supports are used as an in vitro absorption model: apparent permeability coefficients (PE) of the compounds across the MDCK-MDR1 cell monolayers are measured (pH 7.4, 37°C) in apical-to-basal (AB) and basal-to-apical (BA) transport direction. The AB permeability (PEAB) represents drug absorption from the blood into the brain and the BA permeability (PEBA) drug efflux from the brain back into the blood via both, passive permeability as well as active transport mechanisms mediated by efflux and uptake transporters that are expressed on the MDCK-MDR1 cells, predominantly by the overexpressed human MDR1 P-gp. Identical or similar permeabilities in both transport directions indicate passive permeation, vectorial permeability points to additional active transport mechanisms. Higher PEBA than PEAB (PEBA/PEAB > 5) indicates the involvement of active efflux mediated by MDR1 P-gp, which might compromises the goal to achieve sufficient brain exposure. Therefore this assay provides valuable support for selection of compounds applicable for further in vivo testing. High permeability not limited by efflux at the blood brain barrier is a favourable characteristic for compounds that are to be used for drugs acting primarily in the CNS
Apparent permeability coefficients (PE) of the compounds across the MDCK-MDR1 cell monolayers are measured (pH 7.4, 37°C) in apical-to-basal (AB) and basal-to-apical (BA) transport direction. AB permeability (PEAB) represents drug absorption from the blood into the brain and BA permeability (PEBA) drug efflux from the brain back into the blood via both passive permeability as well as active transport mechanisms mediated by efflux and uptake transporters that are expressed on the MDCK-MDR1 cells, predominantly by the overexpressed human MDR1 P-gp. The compounds are assigned to permeability/absorption classes by comparison of the AB permeabilities with the AB permeabilities of reference compounds with known in vitro permeability and oral absorption in the human. Identical or similar permeabilities in both transport directions indicate passive permeation, vectorial permeability points to additional active transport mechanisms. Higher PEBA than PEAB indicates the involvement of active efflux mediated by MDR1 P-gp. Active transport is concentration- dependently saturable.
MDCK-MDR1 cells (1-2 x 10e5 cells/1 cm2 area) are seeded on filter inserts (Costar transwell polycarbonate or PET filters, 0.4 µm pore size) and cultured (DMEM) for 7 days. Subsequently, the MDR1 expression is boosted by culturing the cells with 5 mM sodium butyrate in full medium for 2 days. Compounds are dissolved in appropriate solvent (like DMSO, 1 -20 mM stock solutions). Stock solutions are diluted with HTP-4 buffer (128.13 mM NaCl, 5.36 mM KCI, 1 mM MgSO4, 1.8 mM CaCl2, 4.17 mM NaHCO3, 1.19 mM Na2HPO4 x 7H2O, 0.41 mM NaH2PO4xH2O, 15 mM HEPES, 20 mM glucose, 0.25 % BSA, pH 7.4) to prepare the transport solutions (0.1 - 300 µM compound, final DMSO <= 0.5 %). The transport solution (TL) is applied to the apical or basolateral donor side for measuring A-B or B-A permeability (3 filter replicates), respectively. The receiver side contains the same buffer as the donor side. Samples are collected at the start and end of experiment from the donor and at various time intervals for up to 2 hours also from the receiver side for concentration measurement by HPLC-MS/MS or scintillation counting. Sampled receiver volumes are replaced with fresh receiver solution.

OX2R = molecular target: T3, OX2R (Homo sapiens, UniProt O43614); details: cited from earlier work
T3 sequence (O43614 1-444): T1 sequence (O43614 1-444)

[2] = read-out: Assay C: Human MST t1/2
[3] = read-out: Assay D:MDCK efflux ratio (BA/AB)

SMILES	Kb (human orexin 2 receptor; 0.5 nM Orexin A)	half-life at 1 µM [1, 2]	efflux ratio (human MDR1 P-gp; [3])	further results
CCN(C(=O)c1cc(F)ccc1-c1ncccn1)[C@@H](C)CNc1ncc(C(F)(F)F)cn1 [Example 15]	22.9 nM	> 2 h	< 3	–
CCN(C(=O)c1nc(C)ccc1-n1cccn1)[C@@H](C)CNc1ncc(C(F)(F)F)cn1 [Example 12]	129 nM	1.08 h	< 3	–
CCN(C(=O)c1cc(F)ccc1-c1ncccn1)[C@@H](C)Cn1nnc(-c2ccc(F)cc2)n1 [Example 70 in WO2013/187466, reference compound]	–	–	–	half-life at 1 µM ([1]; read-out: Data as determined in Assay C: Human MST t1/2): 0.267 h
Cc1nc(C(=O)N(C)CCNc2ncc(Br)cn2)c(-c2ccc(F)cc2)s1 [Example 6 in WO03/051872, reference compound]	–	0.133 h	–	Kb (human orexin 2 receptor; 0.5 nM Orexin A concentration, read-out: Assay B: OX2R Kb): 101 nM; efflux ratio (human MDR1 P-gp; read-out: Assay D: MDCK efflux ratio (BA/AB)): 0.8
CCN(C(=O)c1cc(C#N)ccc1-n1nccn1)[C@@H](C)CNc1ncc(C(F)(F)F)cn1 [Example 8]	33.4 nM	> 2 h	3 to 5	–
CCN(C(=O)c1ccc(F)c(F)c1-n1nccn1)[C@@H](C)CNc1ncc(C(F)(F)F)cn1 [Example 4]	46.9 nM	1.58 h	< 3	–
CCN(C(=O)c1ncccc1-c1ccccc1)[C@@H](C)CNc1ncc(C(F)(F)F)cn1 [Example 19]	12.5 nM	> 2 h	< 3	–
CCN(C(=O)c1ccccc1-c1noc(C)n1)[C@@H](C)CNc1ncc(C(F)(F)F)cn1 [Example 14]	44 nM	1.52 h	< 3	–
CCN(C(=O)c1cc(F)cnc1-n1nccn1)[C@@H](C)CNc1ncc(C(F)(F)F)cn1 [Example 10]	1060 nM	> 2 h	< 3	–
CCN(C(=O)c1cccc(F)c1-c1ncccn1)[C@@H](C)CNc1ncc(C(F)(F)F)cn1 [Example 11]	19.3 nM	> 2 h	3 to 5	–
CC[C@@H](CNc1ncc(C(F)(F)F)cn1)N(C)C(=O)c1nc(C)ccc1-c1ncccn1 [Example 84 in WO2016/034882]	–	0.683 h	< 3	OX2R pIC50 (OX2R; Table 3 of WO2016/034882): 6.0; IC50 (OX2R; corresponds to pIC50 of Table 3 of WO2016/034882): 1000 nM
C[C@@H](CNc1ccc(Cl)cn1)N(C)C(=O)c1ccccc1-c1ccccc1 [Example 14 in WO2016/034882, reference compound]	–	0.0333 h	–	–
